From patent US6469196B2, “Dialkyl phenyl halide-substituted keto-enols for use as herbicides and pesticides” (Bayer Aktiengesellschaft, priority 1995, dated 2002)

How the values were obtained:
Format in all cases: in vivo
[1] = tested on: green rice leafhopper (Nephotettix cincticeps); assay: Nephotettix test; conditions: active compound concentration 0.1%; after 6 days; dipped rice seedlings (Oryza sativa)
Description: (§1) Nephotettix Test Solvent: 7 parts by weight of dimethylformamide Emulsifier: 1 part by weight of alkylaryl polyglycol ether To produce a suitable preparation of active compound, 1 part by weight of active compound is mixed with the stated amount of solvent and the stated amount of emulsifier, and the concentrate is diluted with water to the desired concentration. Rice seedlings (Oryza sativa) are treated by being dipped into the preparation of the active compound of the desired concentration and are infested with the green rice leafhopper (Nephotettix cincticeps) while the leaves are still moist. After the specified period of time, the destruction in % is determined. 100% means that all the leafhoppers have been killed; 0% means that none of the leafhoppers have been killed.

[2] = tested on: mustard beetle larvae (Phaedon cochleariae); assay: Phaedon larvae test; conditions: active compound concentration 0.1%; after 7 days; dipped cabbage leaves (Brassica oleracea)
Description: as §1, with “Phaedon larvae” for “Nephotettix”, “Cabbage leaves (Brassica oleracea)” for “Rice seedlings (Oryza sativa)”, “mustard beetle larvae (Phaedon cochleariae),” for “the green rice leafhopper (Nephotettix cincticeps)”, “After the specified period of time, the destruction in % is determined.” left out, “beetle larvae” for “leafhoppers”

[3] = tested on: peach aphid (Myzus persicae); assay: Myzus test; conditions: active compound concentration 0.1%; after 6 days; dipped infested cabbage leaves (Brassica oleracea)
Description: as §1, with “Myzus” for “Nephotettix”, “Cabbage leaves (Brassica oleracea) which have been heavily infested with the peach aphid (Myzus persicae)” for “Rice seedlings (Oryza sativa)”, “concentration.” for “concentration and are infested with the green rice leafhopper (Nephotettix cincticeps) while the leaves are still moist.”, “aphids” for “leafhoppers”

[4] = tested on: common spider mite or two-spotted spider mite (Tetranychus urticae); assay: Tetranychus test (OP-resistant/dipping treatment); conditions: active compound concentration 0.1%; after 13 days; dipped infested bean plants (Phaseolus vulgaris)
Description: Tetranychus Test (OP-resistant/dipping Treatment)
Solvent: 7 parts by weight of dimethylformamide
Emulsifier: 1 part by weight of alkylaryl polyglycol ether
To produce a suitable preparation of active compound, 1 part by weight of active compound is mixed with the stated amount of solvent and the stated amount of emulsifier, and the concentrate is diluted with water to the desired concentration.
Bean plants (Phaseolus vulgaris) which have been heavily infested with the common spider mite or two-spotted spider mite (Tetranychus urticae) in all stages of development are treated by being dipped into the preparation of the active compound of the desired concentration.
After the specified period of time, the destruction in % is determined. 100% means that all the spider mites have been killed; 0% means that none of the spider mites have been killed.

[5] = tested on: caterpillars of the diamond-back moth (Plutella xylostella); assay: Plutella test; conditions: active compound concentration 0.1%; after 7 days; dipped cabbage leaves (Brassica oleracea)
Description: Plutella Test Solvent: 7 parts by weight of dimethylformamide Emulsifier: 1 part by weight of alkylaryl polyglycol ether To produce a suitable preparation of active compound, 1 part by weight of active compound is mixed with the stated amount of solvent and the stated amount of emulsifier, and the concentrate is diluted with water to the desired concentration. Cabbage leaves (Brassica oleracea) are treated by being dipped into the preparation of the active compound of the desired concentration and are infested with caterpillars of the diamond-back moth (Plutella xylostella) while the leaves are still moist. After the specified period of time, the destruction in % is determined. 100% means that all the caterpillars have been killed; 0% means that none of the caterpillars have been killed.

Cc1cc(Br)cc(C)c1C1=C(O)C2(CCCC(C)C2)NC1=O (stereo not drawn) [Example I-1-a-1]
100%: destruction in % [1] | destruction in % [2]

Cc1cc(C)c(C2=C(O)C3(CCCCC3)OC2=O)c(Br)c1 [Example I-2-a-1]
100%: destruction in % [1] | destruction in % [3] | action (destruction in %) [4] | destruction in % [2]

Cc1cc(C)c(C2=C(OC(=O)C(C)(C)C)C3(CCCCC3)OC2=O)c(Br)c1 [Example I-2-b-1]
100%: destruction in % [1] | destruction in % [5] | destruction in % [2]
